Experimental findings from publication PMC11790958, “Molecular mechanism of condensin I activation by KIF4A” (The EMBO Journal, 2024) are described below.

Assay [1] relates to condensin I. Nature of the assay: ATPase activity assay (EnzCheck phosphate assay), basal. The format is biochemical, human. Particulars: 50 μM peptide, 3 repeats. The protocol:
ATPase assays were performed based on the method described previously (Voulgaris and Gligoris, [2019]) using the EnzCheck phosphate assay kit (Invitrogen). Condensin I complexes were used at a final concentration of 50 nM, while HAWK subunits were used at 100 nM and peptides were used at 50 μM. Basal ATPase assays were performed with final salt concentration of 100 mM KCl. DNA titrations were performed with 50 bp dsDNA annealed by heating to 98 degrees and slowly cooling in annealing buffer (10 mM Tris pH 7.5, 50 mM NaCl, 1 mM EDTA).
Plate was read with a POLARstar Omega plate reader (BMG).

The test system of assay [2] is condensin I. Nature of the assay: Single-molecule loop extrusion assay, loop extrusion rate. The format is biochemical, human. Particulars: without flow, 0.75 nM-3 nM protein, peptide at 1000x. How it is done:
Real-time imaging of the loop extrusion by condensin I was carried out in the aforementioned flow cells as follows. The channel was washed with T50 buffer (40 mM Tris-HCl pH 8.0, 50 mM NaCl, 0.2 mM EDTA), incubated with 1 µM Streptavidin in T50 buffer for 2 min and incubated with 5 mg/ml BSA in T50 buffer for 5 min to further reduce unspecific binding of proteins to the surface. The excess Streptavidin and BSA were washed thoroughly with T50 buffer. Lambda DNA biotinylated at both ends was introduced to the channel at a flow rate of 2 µl/min facilitating surface attachment through the streptavidin–biotin binding. […]
ROIs with a DNA strand that formed a loop were cropped and saved in TIFF format for further analysis. […] The kymographs were built by summing the fluorescence intensity for 11 pixels along the line centred around the DNA axis from the median filtered images. […]
For the determination of the loop extrusion rate, each line in the kymograph was split into three regions: “Up”, “Loop” and “Down” (Fig. 4D). For this, first the loop region was determined as follows: Using the “find_peaks” function from the package signal from the Python module scipy local intensity maxima in each line of the kymograph was determined. […] The loop extrusion rate in Fig. 4G was determined by fitting a linear function f(x) = kx + c to the initial 5 s of the loop growth curve. […]

In assay [3] the test system is CI NdelH, D2delC. Nature of the assay: Fluorescence polarisation competition assay, 5-FAM NCAPH peptide and CI NdelH, D2delC. The format is binding, human. Conditions: 100 nM 5-FAM-NCAPH55-77 with 4 μM CID2ΔC,NΔH, 100 μM competing peptide; listed as KIF4a peptide. The protocol:
FP competition assays were performed for NCAPD2 peptide, using a fixed concentration of 100 nM of F-NCAPD2-C1376-1398 and 6 μM of NCAPG, in the presence or absence of 10 μM KIF4A WT1206-1228 or KIF4A Mut1206-1228 peptide. Similar assays were performed for NCAPH2 peptide, using a fixed concentration of 100 nM of F-N-NCAPH55-77 and 4 μM CI NdelH, D2delC, in the presence or absence of 100 μM of KIF4A WT1206-1228 or KIF4A Mut1206-1228 peptide.
Background was determined by measuring 100 nM of F-NCAPD2-C1376-1398 or F-N-NCAPH55-77 in the presence of peptide buffer (20 mM HEPES pH 8), KIF4A WT1206-1228 or KIF4A Mut1206-1228 peptide, and subtracted from each measurement. Assay was performed with three technical repeats, setting up a new plate with distinct protein aliquot each time, reading the plate three times to ensure equilibrium. Data analysed and plotted using GraphPad Prism.
In general terms: Fluorescence polarisation rises when a labelled molecule tumbles more slowly, as on binding a larger partner.

For assay [4], the system named is condensin I. Nature of the assay: Single-molecule loop extrusion assay, fraction of looped DNA. The format is biochemical, human. Conditions: for fraction of looped DNA: 0.5 nM condensin I WT, peptide at 1000x. The protocol:
Real-time imaging of the loop extrusion by condensin I was carried out in the aforementioned flow cells as follows. The channel was washed with T50 buffer (40 mM Tris-HCl pH 8.0, 50 mM NaCl, 0.2 mM EDTA), incubated with 1 µM Streptavidin in T50 buffer for 2 min and incubated with 5 mg/ml BSA in T50 buffer for 5 min to further reduce unspecific binding of proteins to the surface. The excess Streptavidin and BSA were washed thoroughly with T50 buffer. Lambda DNA biotinylated at both ends was introduced to the channel at a flow rate of 2 µl/min facilitating surface attachment through the streptavidin–biotin binding. The flow was adjusted and kept constant with a syringe pump attached to the outlet of the flow cell. Excess DNA was washed thoroughly with T50 buffer.
The surface attached DNA molecules were imaged in the imaging buffer (40 mM Tris-HCl pH 7.5, 2 mM Trolox, 30 mM D-glucose, 50 mM Potassium Glutamate (L-Glutamic acid monopotassium salt monohydrate), 2.5 mM MgCl2, 1 mg/ml BSA, 1 mM TCEP, 2.5 mM ATP, 100 nM Sytox Orange, 30 mg/ml Glucose Oxidase (15 U/ml), 20 mg/ml Catalase (1000 U/ml)). The imaging buffer supplied with used condensin I variant was introduced into the channel at a flow rate of 10 µl/min for 100 s and the flow was stopped afterward. For the activity assay comparing condensin I WT and condensin I ΔNCAPG 1 nM of protein, for the activity assay comparing condensin I WT and condensin I WT supplied with KIF4A peptide 0.5 nM of protein and 1000× of the KIF4A peptide, for the analysis of loop extrusion rate 0.75 nM–3 nM of protein (in the case of condensin I WT supplied with KIF4A peptide, correspondingly 1000× of KIF4A peptide) was used.
Region of interests (ROIs) containing a single Lambda DNA molecule were chosen manually and annotated using the tools provided by the Python package Napari. For a single loop extrusion experiment, a field of contains ~100–200 DNA strands. Only the strands that were tethered at both ends from the beginning to the end of the data acquisition were considered for the analysis. Each of the DNA strands were manually analysed whether they form at least one loop during an acquisition time of 1000 s, including the initial 100 s of flow. The “fraction of looped DNA” (Fig. 4B,C) was defined as the ratio of the number of the DNA strands which form at least one loop to the total number of DNA strands. This quantity was taken as a measure for the activity of the protein. […] (For 1 nM condensin I WT 4, for 1 nM condensin I ΔNCAPG 10, for 0.5 nM condensin I WT 3, For 0.5 nM condensin I WT supplied with 0.5 µM KIF4A three independent experiments were performed and analysed.) The error bars in the Fig. 4 are given by the standard deviation of these datasets. […]

With “PGKKKKRALASNTSFFSGCSPIE [KIF4A1206-1228, KIF4A SLiM peptide, residues 1206-1228, unlabelled]”, the “effect of peptide on ATPase activity of CI” value in assay [1] (50 nM CI) was “small but significant increase”. Also, the “effect of peptide on ATPase rate of CINΔH” value in assay [1] (50 nM CINΔH) is listed as “no additional stimulation”. In assay [1] (50 nM CINΔH,D3ΔC), the “effect of peptide on ATPase rate of CINΔH,D3ΔC” value is “no additional stimulation”. For the same sequence, in assay [2], the “loop extrusion rate compared to CIWT” value is listed as “no significant difference”. The “FP signal on addition of competing peptide” value in assay [3] is listed as ~ 20 mP. Further, the “fraction of looped DNA” value came out at 0.9481 in assay [4] (experiment 1), 1 in assay [4] (experiment 2) and 0.9388 in assay [4] (experiment 3). In assay [4] (0.5 nM condensin I, with or without 0.5 μM KIF4A1206-1228 peptide, 1000 s acquisition, mean of n = 3 experiments), the “tethers having DNA loops” value is recorded as ~ 96%.
